Results reported in patent US12070452B2, “Compounds targeting HSP110 protein for cancer treatment” (INSERM (Institut National de la Santé et de la Recherche …, priority 2018, dated 2024).

Tests used:
HSP110:STAT3 complex = biological target: T1, HSP110:STAT3 complex (Homo sapiens, UniProt Q92598); test: Immunoprecipitation of HSP110:STAT3 complex in SW480 cells; type: cell-based; conditions: SW480 shCtrl cells, 10 μM, 48 h
T1 construct: disrupting HSP110:STAT3 complex within the cell using human colorectal SW480 cancer cells; endogenous in cells; host or cells: SW480 cells carrying control shRNA (shCtrl); sh110 cells as HSP110-depleted control
T1 sequence (Q92598 2-858 limits assumed, one chain of several): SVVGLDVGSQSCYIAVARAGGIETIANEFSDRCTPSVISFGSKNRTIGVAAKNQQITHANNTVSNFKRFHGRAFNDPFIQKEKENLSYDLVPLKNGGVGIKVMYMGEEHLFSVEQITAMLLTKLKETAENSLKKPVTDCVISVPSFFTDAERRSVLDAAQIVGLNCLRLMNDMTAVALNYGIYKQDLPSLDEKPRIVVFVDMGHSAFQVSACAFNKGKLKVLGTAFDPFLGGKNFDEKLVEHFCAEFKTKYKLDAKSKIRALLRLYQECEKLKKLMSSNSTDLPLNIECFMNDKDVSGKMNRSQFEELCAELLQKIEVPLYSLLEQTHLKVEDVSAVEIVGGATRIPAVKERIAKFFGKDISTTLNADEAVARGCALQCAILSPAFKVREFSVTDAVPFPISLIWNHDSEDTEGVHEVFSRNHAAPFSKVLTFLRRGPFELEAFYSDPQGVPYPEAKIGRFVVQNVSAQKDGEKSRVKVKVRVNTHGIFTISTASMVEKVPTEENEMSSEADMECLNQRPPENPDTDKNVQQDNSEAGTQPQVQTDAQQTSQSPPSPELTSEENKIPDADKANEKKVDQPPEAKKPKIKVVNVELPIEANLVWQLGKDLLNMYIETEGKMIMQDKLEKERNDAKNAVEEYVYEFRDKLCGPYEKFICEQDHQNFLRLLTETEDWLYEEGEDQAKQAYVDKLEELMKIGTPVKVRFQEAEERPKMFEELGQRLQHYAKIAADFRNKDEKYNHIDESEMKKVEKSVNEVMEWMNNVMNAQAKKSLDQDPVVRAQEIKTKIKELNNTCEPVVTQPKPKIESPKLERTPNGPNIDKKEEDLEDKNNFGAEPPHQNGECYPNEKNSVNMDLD
Experimental: FIG. 2A: Immunoprecipitation (IP) analysis of HSP110 protein (first line), STAT3 protein (second line) compared with total Immunoglobuline (Ig) and actin in SW480 cells treated with (from left to the right column) non-relevant antibody as control (called NT a Normal rabbit IgG (sc-2027) from Santa Cruz Biotechnologies), compound 52 (related to formula (III)), compound 33 (related to formula (II)), compound 51 (related to formula (IV)) and comparative compound 61 at a concentration of 10 μM during 48 h on shCtrl cells transfected with shRNA for shRNA control (referenced ShCtrl IP:STAT3 for the five first columns) or HSP110-silencing (sh110) (referenced sh110-IP:STAT3 for the two last columns) (from the left to the right columns). Immunoprecipitation analysis of HSP110 (first line), STAT3 (second line) compared with total Ig and actin (second blot in the right) is observed with shCtrl cells transfected with shRNA for shRNA control (shCtrl) or HSP110-silencing (sh110) (left to right columns).
FIG. 2B: Quantification of HSP110:STAT3 disruption in percentage considering the total amount of HSP110 protein normalized by the signal intensity of the Ig band of FIG. 1 panel A. (Ordinate: Percentage of STAT3:HSP110 protein interaction (scale 50)). The histogram measured quantification in percentage for ShCtrl IP: STAT3 treated with Ctrl, compounds 52, 33, 51 and comparative compound 61, and for shCtrl cells transfected with shRNA for shRNA control referenced ShCtrl IP: STAT3) or HSP110-silencing (sh110) (referenced sh110-IP: STAT3) (from the left to the right column)
Immunoprecipitation test were realized on human colorectal cancer cells (SW480 and HCT116 cell lines), using a control depleted in HSP110 called Sh110 and a not depleted cells in HSP110. STAT3 phosphorylation is then […] by compounds 33 and 52. Depletion of HSP110 in the negative control blocked the phosphorylation of STAT3 without affecting STAT3 overall levels (FIGS. 2 and 3).

HCT116 cells = test: Cell proliferation, Cell Trace Violet flow cytometry, HCT116; type: cell-based, human; conditions: HCT116 cells with shRNA control, 10 μM, 96 h
Experimental: FIG. 4B: Relative quantification of cell proliferation in HCT116 cells transfected with shRNA for shRNA control (shCtrl) (from the first to the fourth columns from left to right) or HSP110-silencing (sh110) ((from the fifth to the last columns, from left to right) left to right) treated with Ctrl (DMSO), compound 33, compound 52, and comparative compound 61 at a concentration of 10 μM during 96 h (Histogram from the left to the right). Ordinate: Percentage of HCT116 cell proliferation (scale 20) for the lower figure. Statistical analysis has been performed by ANOVA **: (p<0.05); ***: p<0.005. Western blot of HSP110 and actin (first and second line of blots) for the shCtrl HCT116 cells and sh110 HCT116 cells (first and second columns).
Colorectal cells lines were purchased from the American Type Culture Collection. CT-26 and HCT116 were cultured in Roswell Park Memorial Institute 1640 medium. […]
Proliferation was determined by staining cells with Cell Trace Violet (Invitrogen-C34557) according to the manufacturer's procedure. Cell divisions were detected over 96 h by flow cytometry (LSRII cytometer) and the number of cell generations was estimated by ModFit software. […]

Bcl2 and Bcl-xL = test: Western blot of anti-apoptotic proteins Bcl2 and Bcl-xL in DLBCL cell lines; type: cell-based, human; conditions: TMD8 and HBL1, 76 h in vitro treatment
Experimental: FIG. 10D: Expression analysis of BcL2 (first line), BcL-XL (second line), and Actin (third line) in TMD8 human B cell lymphoma cell line or in HBL1 human diffuse large B-cell lymphoma cell line, both cell lines being treated with Control (DMSO), compound 33 and compound 52.
It has also been shown that compounds 33 and 52 reduce the expression of the anti-apoptotic proteins Bcl2 and Bcl-xL in these two human diffuse large B-cell lymphoma cell lines, as determined by Western blotting after a 76 h in vitro treatment with compound 33 or 52.

DLBCL cell lines = test: Viability of B-cell lymphoma cell lines (Annexin V/7AAD staining); type: cell-based, human; conditions: 96 h, 5-40 μM
From the text: FIG. 10E: Viability of various B-cell lymphoma cell lines treated with increasing concentrations of compound 33 (inhibitor 33).
Groups of bars, from the left to the right of FIG. 10E: (i) OCI-Ly10 human diffuse large B-cell lymphoma cell line, (ii) HBL1 human diffuse large B-cell lymphoma cell line, (iii) TMD8 human B cell lymphoma cell line, (iv) OCI-Ly3 human large B-cell lymphoma cell line and (v) U2932 human diffuse large B-cell lymphoma cell line.
In each group of bars, from the left to the right: (i) Control, without treatment, (ii) Compound 33 at 5 μM, (iii) Compound 33 at 10 μM, (iv) Compound 33 at 20 μM, (v) Compound 33 at 30 μM, (vi) Compound 33 at 40 μM.
FIG. 10F: Viability of various B-cell lymphoma cell lines treated with increasing concentrations of compound 52 (inhibitor 52).
Groups of bars, from the left to the right of FIG. 10F: (i) TMD8 human B cell lymphoma cell line and (ii) OCI-Ly3 human large B-cell lymphoma cell line.
In each group of bars, from the left to the right: (i) Control, without treatment (0 μM), (ii) Compound 52 at 5 μM, (iii) Compound 52 at 10 μM, (iv) Compound 52 at 20 μM, (v) Compound 52 at 30 μM, (vi) Compound 52 at 40 μM.

Which results are given for `COc1ccc(-c2ncc(-c3ncc(-c4cc(OC)c(OC)c(OC)c4)cc3/C=C/c3ccccc3)cc2C)cc1OC` [compound 33, (E)-6′-(3,4-Dimethoxyphenyl)-5′-methyl-3-styryl-5-(3,4,5-trimethoxyphenyl)-2,3′-bipyridine]?
percentage of interaction of STAT3:HSP110 (HSP110:STAT3 complex): 20%; hampering of cell proliferation (HCT116 cells): around 40%; expression of anti-apoptotic protein Bcl2 (Bcl2 and Bcl-xL): reduce; expression of anti-apoptotic protein Bcl-xL (Bcl2 and Bcl-xL): reduce; viability of DLBCL cell lines (DLBCL cell lines; OCI-Ly10, HBL1, TMD8, OCI-Ly3 and U2932): reduces the viability

For `COc1cc(-c2cnc(-c3cnc(-c4cc(OC)c(OC)c(OC)c4)c(C)c3)c(/C=C/c3ccccc3)c2)cc(OC)c1OC` [compound 52, (E)-5′-Methyl-3-styryl-5,6′-bis(3,4,5-trimethoxyphenyl)-2,3′-bipyridine], which “percentage of interaction of STAT3:HSP110” value (HSP110:STAT3 complex) is on record?
Its value is 5%.

What about the “hampering of cell proliferation” value (HCT116 cells) of the same compound?
The value was “around 40%”.

And the “expression of anti-apoptotic protein Bcl2” value (Bcl2 and Bcl-xL)?
Its value is “reduce”.

What about the “expression of anti-apoptotic protein Bcl-xL” value (Bcl2 and Bcl-xL) of the same compound?
Its value is “reduce”.

What about the “viability of DLBCL cell lines” value (DLBCL cell lines; TMD8 and OCI-Ly3) of the same compound?
The value was “reduces the viability”.
